Measurements: patent US20260183437A1, “VHH ANTIBODY CONJUGATES WITH HETEROARYL CHELATORS” (ABDERA THERAPEUTICS INC., priority 2022, published 2026)

Key:
BT474 = test: ABC (Antibody Binding Capacity) assay, receptor density; format: cell-based
Procedure: (§1) In order to test efficacy of the immunoconjugate binding with respect to target density receptor density was measured on target positive cell lines. Target density was measured using the ABC (Antibody Binding Capacity) assay. Cancer cells expressing the target of interest, as well as a negative control cell line, were harvested with cell dissociation buffer, seeded at about 5×10^4 cells per well into 96-well V bottom plate (Sarstedt 82.1583.001). Cells were tested for receptor expression using QuantiBRITE PE beads (BD Cat #340495) and a PE-conjugated anti-hu IgG (Biolegend clone HP6017) following the manufacturers' instructions. In brief, VHH-Fc and isotype control antibodies were prepared at suitable saturating concentrations based on previous experiments. Antibody sample dilutions were incubated with the panel of cell lines on ice for 1 hour. Cells were washed twice with 1% FBS in 1×PBS (FACS buffer), centrifuged at 400 G for 4 min. Cells were then incubated with 4 μg/mL mouse PE-conjugated anti-hu and DAPI (1:1000) for 30 minutes on ice. Cells were washed twice with FACS buffer, centrifuged at 400 G for 4 minutes and resuspended in FACS buffer. Fluorescence intensity on the PE channel was measured on the iQue Screener platform, and data were processed with ForeCyt software. The amount of PE signal generated from the different primary antibody was then fit to a standard curve based off of known PE molecules/Quantibrite bead samples to determine the number of antibody-binding sites per cell. Relative antibody binding sites correlate to the number of antigens or receptors on cell surface.

HCT-116 = test: as above; format: cell-based
Procedure: as §1

HEK-DLL3 = test: as above; format: cell-based
Procedure: as §1

HEK293-6E = test: as above; format: cell-based
Procedure: as §1

SHP-77 = test: as above; format: cell-based
Procedure: as §1

Human HER2-His = biological target: T1, Human HER2-His (Homo sapiens, UniProt P04626); test: Affinity to target protein by biolayer interferometry (Octet Red96e); format: binding; settings: analyte Human HER2-His
T1 construct: His; purchased Sinobiologics 10004-H08H
Procedure: Antibody affinity was assessed using Octet Red96e (ForteBio). The association rate constant (ka), dissociation rate constant (kd) and affinity constant (KD) were measured by biolayer interferometry with anti-hIgG Fc (AHC) capture biosensors (Fortebio cat #18-5063). Each cycle was performed with orbital shake speed of 1,000 rpm. Antigen was titrated 1:2 from a suitable starting concentration in kinetics buffer (Fortebio, Cat #18-1105). A set of AHC biosensors was dipped in kinetics buffer for baseline step of 60s. Anti-Target VHH-Fc (5 μg/mL, in kinetics buffer) was loaded onto the biosensors for 240 s followed by a second baseline step of 30 s. The IgG captured sensors were dipped into buffer for single reference subtraction to compensate natural dissociation of capture IgG. Each biosensor was then dipped into corresponding concentration of target protein (human, murine or cynomolgus monomeric protein) for 600 s, followed by 1800 s of dissociation time in kinetics buffer, or conditions as optimized. A new set of AHC biosensors was used for every VHH-Fc. The data was analyzed by global fit 1:1 model for the association and dissociation step, (Octet software version v11.0).

human insulin = biological target: T2, human insulin (Homo sapiens, UniProt P01308); test: Polyreactivity ELISA; format: binding; settings: 10 μg/mL VHH-Fc; signal normalized to non-coated well
T2 construct: 5 μg/mL of human insulin (SigmaAlrich, Cat #: I9278); purchased SigmaAlrich I9278
T2 sequence (P01308 25-54 limits assumed): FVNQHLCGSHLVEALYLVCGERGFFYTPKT
T2 sequence (P01308 90-110 limits assumed): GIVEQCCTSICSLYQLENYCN
Procedure: Polyreactivity of VHH-Fcs against negatively charged biomolecules was determined by ELISA (As in Avery et al., “Establishing in vitro in vivo correlations to screen monoclonal antibodies for physicochemical properties related to favorable human pharmacokinetics.” MAbs. 2018 February/March; 10(2):244-255). Briefly, ELISA plate was coated with 5 μg/mL of human insulin (SigmaAlrich, Cat #: I9278) and 10 μg/mL of double stranded DNA (SigmaAlrich, Cat #: D1626-250MG) overnight. The plate was blocked with ELISA buffer (PBS, 1 mM EDTA, 0.05% Tween-20, pH 7.4). 10 μg/mL of test VHH-Fcs was loaded onto the plates in quadruplicates and incubated for 2 hours. Goat anti-human Fc(0.01 ug/ml) conjugated with HRP was then added and the plate incubated for 1 hour. The signal was developed with TMB and A450 absorbance was measured with Synergy Neo2 plate reader. The signal was normalized with the signal of non-coated well for each antibody tested.

HEK-DLL3 cells = test: Internalization assay (pHAb dye labelled secondary antibody, flow cytometry); format: cell-based; settings: 75 nM, 37° C.
Procedure: (§2) VHH-Fcs were tested for internalization by target-expressing cells using a secondary antibody conjugated to a pH sensitive dye. Goat anti-hu IgG-Fc secondary antibody was amine-conjugated to a pH sensitive pHAb dye (Promega Cat #G9845) according to the manufacturer's instructions. The pHAb dye has low or no fluorescence at pH>7 but fluoresces in acidic environment upon antibody internalization. […] VHH-Fcs and hIgG1 isotype control were diluted in media to 75 nM. Cells were spun to remove supernatant, resuspended with the prepared primary antibodies and incubated on ice for 1 hour. Excess primary antibody was washed off from cells and then incubated with pHAb labelled secondary antibody on ice for 30 minutes. Excess secondary was then washed off and cells were resuspended in media. One set of samples was placed in an incubator at 37° C. to allow internalization, and another set was left on ice (0° C.) as a binding only control. Cells were sampled at different time points ranging from 0 to 24 hours. Cells were stained with DAPI and read by flow cytometry on 572/28 channel with iQue screener platform. The VHH-Fcs show higher fluorescence than the negative controls (isotype, buffer) on target-positive cells.

SHP-77 cells = test: as above; format: cell-based; settings: 75 nM, 37° C.
Procedure: as §2

[1] = Thermal stability by differential scanning fluorimetry (DSF); format: physicochemical
Procedure: Denaturing temperatures (Tm) of VHH-Fes were determined from differential scanning fluorimetry (DSF) using Protein Thermo Shift Dye Kit™ (ThermoFisher, Cat #: 4461146). Briefly, A total of 1 μg of antibody was used in each reaction. Melting curves of the antibodies were generated using an Applied Biosystems QuantStudio 7 Flex Real-Time PCR System with the recommended settings stated in the kit manual. The Tm's of the antibodies in Table 1 were then determined by using the ThermoFisher Protein Thermal Shift software (v.1.3). Tm1 of the VHH-Fcs was determined by DSF.

## H101: anti-HER2 VHH-Fc (2RS15d VHH, human IgG1 Fc); FcRn wt, Fc effector wt [Compound H101]
BT474
  Estimated number of epitopes/cell: 401604 epitopes/cell
HCT-116
  Estimated number of epitopes/cell: 2604 epitopes/cell
HEK-DLL3
  Estimated number of epitopes/cell: 1490 epitopes/cell
HEK293-6E
  Estimated number of epitopes/cell: 1935 epitopes/cell
SHP-77
  Estimated number of epitopes/cell: 572 epitopes/cell
Human HER2-His
  Kd: 3.79 nM
Human insulin
  Polyreactivity Assay Score, Insulin: 1.176
HEK-DLL3 cells
  Internalization: internalized
SHP-77 cells
  Internalization: internalized
[1]
  Tm1 (thermostability) by DSF: 67.5±0.1 Celsius
